These results are taken from patent US20100022509A1, “Inhibitors of MshC and Homologs Thereof, and Methods of Identifying Same” (priority 2006, published 2010).

This test addresses T1, MshC (Mycobacterium tuberculosis, UniProt P9WJM9).
T1 sequence (P9WJM9 1-414): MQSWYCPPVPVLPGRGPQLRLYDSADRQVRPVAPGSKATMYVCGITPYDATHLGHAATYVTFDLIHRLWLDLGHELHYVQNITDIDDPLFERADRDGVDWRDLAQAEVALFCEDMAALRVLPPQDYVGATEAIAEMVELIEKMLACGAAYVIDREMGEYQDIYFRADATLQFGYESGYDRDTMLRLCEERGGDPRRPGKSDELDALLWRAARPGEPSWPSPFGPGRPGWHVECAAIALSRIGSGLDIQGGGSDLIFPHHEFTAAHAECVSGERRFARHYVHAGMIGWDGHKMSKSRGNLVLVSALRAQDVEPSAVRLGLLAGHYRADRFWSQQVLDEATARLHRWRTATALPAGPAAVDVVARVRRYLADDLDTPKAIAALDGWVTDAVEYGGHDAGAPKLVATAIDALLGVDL
Description: biochemical. The class given is biochemical, M. tuberculosis.

The structures appear in SMILES notation. Where two headings read alike, the source gives them in different places. Some results are limits rather than exact numbers.

What is called IC50 is the point on the concentration scale where inhibition reaches its midpoint. For `CCCN(CCC)CCCNC(=O)c1ccc2c(c1)N(Cc1cccc(Cl)c1)C(=O)c1ccccc1S2(=O)=O` [Inhibitor 83-83], the “inhibition of MshC in words, 1,3-diaminopropyl residue with remote amino residue capable of protonation” value (“inhibition of MshC in words … of protonation” below) is given as “measurable inhibition” and the “inhibition of MshC in words, Z is a benzyl moiety bearing one or more halogens” value was “Measurable inhibition”. The molecule further came in with an IC50 (IC50) of 980 ± 40 µM. Also, under “X=S, X=SO, X=SO2”, the “inhibition of MshC in words, compounds grouped by X” value (from here on “inhibition of MshC in words … by X”) was “Significant inhibition”.
As to `CN(C)CCCNC(=O)c1ccc2c(c1)N(Cc1ccc(Cl)cc1)C(=O)c1ccccc1[S+]2[O-]` (stereo not shown) [Inhibitor 1028], the “inhibition of MshC in words … of protonation” value is “measurable inhibition”; the “inhibition of MshC in words, Z is a benzyl moiety bearing one or more halogens” value is “Measurable inhibition”; the “inhibition of MshC in words … by X” value is recorded as “Significant inhibition”. The molecule also came in with an IC50 (IC50, μM) of 335 ± 15 µM.
On to `CC1CCCN(CCCNC(=O)c2ccc3c(c2)N(Cc2ccc(F)cc2)C(=O)c2ccccc2[S+]3[O-])C1` (stereo not shown) [Inhibitor 1051], for which the “inhibition of MshC in words … of protonation” value was “measurable inhibition” and the “inhibition of MshC in words, Z is a benzyl moiety bearing one or more halogens” value is given as “Measurable inhibition”. Besides, half-maximal inhibition (IC50, μM) (IC50) required 710 ± 20 µM. In addition, the “inhibition of MshC in words … by X” value (X=S, X=SO, X=SO2) was “Significant inhibition”.
As to `Cc1ccc(C)c(CN2C(=O)c3ccccc3[S+]([O-])c3ccc(C(=O)NCCCN4CCCC4)cc32)c1` (stereo not shown) [Inhibitor 1061], the “inhibition of MshC in words … of protonation” value is on record as “measurable inhibition” and the “inhibition of MshC in words, Z benzyl moiety with methyl groups in the 2,5 positions or unsubstituted” value is given as “Weak but detectable inhibition”. The molecule further yielded an IC50 (IC50, μM) of 1600 ± 300 µM. In addition, for the setting “X=S, X=SO, X=SO2”, the “inhibition of MshC in words … by X” value is reported as “Significant inhibition”.
With `CCCCN(C)CCCNC(=O)c1ccc2c(c1)N(Cc1cc(C)ccc1C)C(=O)c1ccccc1[S+]2[O-]` (stereo not shown) [Inhibitor 1062], the “inhibition of MshC in words … of protonation” value is listed as “measurable inhibition” and the “inhibition of MshC in words, Z benzyl moiety with methyl groups in the 2,5 positions or unsubstituted” value is “Weak but detectable inhibition”. Further, the IC50 (IC50, μM) was ~2500 µM.
For `CCN1C(=O)c2ccccc2[S+]([O-])c2ccc(C(=O)NCCCN3CCOCC3)cc21` (stereo not shown) [Inhibitor 1075], the IC50 (IC50, μM) is > 3000 µM.
On the same count and under the same terms, the value for `CCN1C(=O)c2ccccc2[S+]([O-])c2ccc(C(=O)NCCN3CCCCCC3)cc21` (stereo not shown) [Inhibitor 1081] was > 3000 µM.
Consider `CCC1CCCCN1CCCNC(=O)c1ccc2c(c1)N(Cc1ccccc1F)C(=O)c1ccccc1[S+]2[O-]` (stereo not shown) [Inhibitor 1137], for which the “inhibition of MshC in words … of protonation” value is “measurable inhibition” and the “inhibition of MshC in words, Z is a benzyl moiety bearing one or more halogens” value is listed as “Measurable inhibition”. Moreover, under “IC50, μM”, 1400 ± 700 µM corresponded to half-maximal inhibition (IC50). For the same molecule, the “inhibition of MshC in words … by X” value (X=S, X=SO, X=SO2) was “Significant inhibition”.
Take `CC1CC(C)CN(CCCNC(=O)c2ccc3c(c2)N(Cc2ccccc2F)C(=O)c2ccccc2S3(=O)=O)C1` (stereo not shown) [Inhibitor 1138]: the IC50 (IC50, μM) is > 3000 µM.
Still for that read-out and setting: the value for `Cc1ccc(C)c(CN2C(=O)c3ccccc3S(=O)(=O)c3ccc(C(=O)NCCN4CCCCC4)cc32)c1` [Inhibitor 1173] was > 2000 µM; that for `Cc1ccc(CN2C(=O)c3ccccc3Sc3ccc(C(=O)NCC(C)CN4CCC(C)CC4)cc32)cc1` (stereo not shown) [Inhibitor 1671] was > 3000 µM.
The same measure, in the same setting: the value for `Cc1ccc(CN2C(=O)c3ccccc3Sc3ccc(C(=O)NCCCN4CC(C)CC(C)C4)cc32)cc1` (stereo not shown) [Inhibitor 1672] was > 3000 µM; that for `CCN1C(=O)c2ccccc2Sc2ccc(C(=O)NCCCN(CC(C)C)CC(C)C)cc21` [Inhibitor 1751] was > 3000 µM.
In the case of `CCN1C(=O)c2ccccc2Sc2ccc(C(=O)NCCCN3CCCCC3)cc21` [Inhibitor 1754], where the note is “IC50, μM”, the IC50 was ~2000 µM. For the setting “X=S, X=SO, X=SO2”, the “inhibition of MshC in words … by X” value is “Significant inhibition”.
On to `O=C(NCCCN1CCCCC1)c1ccc2c(c1)N(Cc1cccc(Cl)c1)C(=O)c1ccccc1S2` [Inhibitor 1776], for which the “inhibition of MshC in words … of protonation” value was “measurable inhibition” and the “inhibition of MshC in words, Z is a benzyl moiety bearing one or more halogens” value was “Measurable inhibition”. For the same molecule, the IC50 (IC50, μM) turned out to be 320 ± 50 µM. The “inhibition of MshC in words … by X” value (X=S, X=SO, X=SO2) is reported as “Significant inhibition”.
On the same counts, the results for `O=C(NCCCN1CCCC1)c1ccc2c(c1)N(Cc1cccc(Cl)c1)C(=O)c1ccccc1S2` [Inhibitor 1779] are “measurable inhibition”, “Measurable inhibition”, 135 ± 30 µM and “Significant inhibition”.
Turning to `O=C(NCc1cccs1)c1ccc2c(c1)N(Cc1cccc(Cl)c1)C(=O)c1ccccc1S2` [Inhibitor 1781], the IC50 (IC50, μM) is > 3000 µM.
`CCC1CCCCN1CCNC(=O)c1ccc2c(c1)N(Cc1ccc(F)cc1Cl)C(=O)c1ccccc1S2` (stereo not shown) [Inhibitor 1806]: the “inhibition of MshC in words, Z is a benzyl moiety bearing one or more halogens” value is given as “Measurable inhibition”. In addition, where the note is “IC50, μM”, the IC50 was ~750 µM. Moreover, the “inhibition of MshC in words … by X” value (X=S, X=SO, X=SO2) is “Significant inhibition”.
As to `CN(CCCNC(=O)c1ccc2c(c1)N(Cc1ccccc1Cl)C(=O)c1ccccc1S2)c1ccccc1` [Inhibitor 1920], the “inhibition of MshC in words, compounds lacking the basic amino group or with groups in excess of 10 carbons on the remote amino residue” value (“inhibition of MshC … on the remote amino residue” for short) is recorded as “little or no inhibition”. In addition, under “IC50, μM”, the IC50 was > 3000 µM.
`O=C(NCCCN1CCOCC1)c1ccc2c(c1)N(Cc1cccc(Cl)c1)C(=O)c1ccccc1S2` [Inhibitor 1937]: the “inhibition of MshC in words … of protonation” value was “measurable inhibition” and the “inhibition of MshC in words, Z is a benzyl moiety bearing one or more halogens” value is recorded as “Measurable inhibition”. This molecule also gave an IC50 (IC50, μM) of 780 ± 120 µM. Also, where the note is “X=S, X=SO, X=SO2”, the “inhibition of MshC in words … by X” value is on record as “Significant inhibition”.
For the molecule `CN(CCCNC(=O)c1ccc2c(c1)N(Cc1cccc(Cl)c1)C(=O)c1ccccc1[S+]2[O-])C1CCCCC1` (stereo not shown) [Inhibitor 1938], the “inhibition of MshC in words … of protonation” value is recorded as “measurable inhibition” and the “inhibition of MshC in words, Z is a benzyl moiety bearing one or more halogens” value is recorded as “Measurable inhibition”. Moreover, the IC50 (IC50, μM) is 102 ± 4 µM. For the same molecule, where the note is “X=S, X=SO, X=SO2”, the “inhibition of MshC in words … by X” value is recorded as “Significant inhibition”.
As for `CCOCCCNC(=O)c1ccc2c(c1)N(Cc1cccc(Cl)c1)C(=O)c1ccccc1[S+]2[O-]` (stereo not shown) [Inhibitor 1939], the “inhibition of MshC … on the remote amino residue” value is “little or no inhibition”. This molecule also gave a concentration for half-maximal inhibition (IC50) (IC50, μM) of 3200 ± 1000 µM.
On the same counts, the results for `CCCCN(CCCNC(=O)c1ccc2c(c1)N(Cc1cccc(Cl)c1)C(=O)c1ccccc1[S+]2[O-])Cc1ccccc1` (stereo not shown) [Inhibitor 1940] are “little or no inhibition” and > 3000 µM.
Regarding `CN(CCc1ccccc1)C(=O)c1ccc2c(c1)N(Cc1cccc(Cl)c1)C(=O)c1ccccc1S2(=O)=O` [Inhibitor 1943], the IC50 (IC50, μM) was > 3000 µM.
Turning to `O=C(NCC1CCCN1)c1ccc2c(c1)N(Cc1cccc(Cl)c1)C(=O)c1ccccc1S2(=O)=O` (stereo not shown) [Inhibitor 1947], the “inhibition of MshC in words, Z is a benzyl moiety bearing one or more halogens” value is reported as “Measurable inhibition” and the “inhibition of MshC in words … by X” value is given as “Significant inhibition”. In addition, the midpoint of inhibition (IC50, μM), the IC50, lay at 2300 ± 300 µM.
Consider `O=C(NCCCN1CCC(Cc2ccccc2)CC1)c1ccc2c(c1)N(Cc1cccc(Cl)c1)C(=O)c1ccccc1S2(=O)=O` [Inhibitor 1949], for which the “inhibition of MshC … on the remote amino residue” value is recorded as “little or no inhibition”. Where the note is “IC50, μM”, the IC50 was > 3000 µM.
In the case of `CCC1CCCCN1CCCNC(=O)c1ccc2c(c1)N(Cc1cccc(Cl)c1)C(=O)c1ccccc1S2(=O)=O` (stereo not shown) [Inhibitor 1954], the “inhibition of MshC in words … of protonation” value is “measurable inhibition” and the “inhibition of MshC in words, Z is a benzyl moiety bearing one or more halogens” value is listed as “Measurable inhibition”. Further, the IC50 (IC50, μM) is 1100 ± 200 µM. In addition, the “inhibition of MshC in words … by X” value (X=S, X=SO, X=SO2) is listed as “Significant inhibition”.
As for `O=C(NCCCSC1CCCCC1)c1ccc2c(c1)N(Cc1cccc(Cl)c1)C(=O)c1ccccc1S2(=O)=O` [Inhibitor 1964], the “inhibition of MshC … on the remote amino residue” value was “little or no inhibition”. The IC50 (IC50, μM) was > 3000 µM.
As to `CCCCN(C)CCCNC(=O)c1ccc2c(c1)N(Cc1cccc(Cl)c1)C(=O)c1ccccc1S2(=O)=O` [Inhibitor 1965], the “inhibition of MshC in words … of protonation” value was “measurable inhibition” and the “inhibition of MshC in words, Z is a benzyl moiety bearing one or more halogens” value was “Measurable inhibition”. It took 1700 ± 300 µM to reach half-maximal inhibition (IC50, μM) (IC50). Moreover, the “inhibition of MshC in words … by X” value (X=S, X=SO, X=SO2) is “Significant inhibition”.
With `CCN(C(=O)c1ccc2c(c1)N(Cc1cccc(Cl)c1)C(=O)c1ccccc1S2(=O)=O)c1ccccc1` [Inhibitor 1966], for the setting “IC50, μM”, the IC50 is > 3000 µM.
In the case of `COC(=O)c1cc2c(cc1NC(=O)c1ccc3c(c1)N(Cc1cccc(Cl)c1)C(=O)c1ccccc1[S+]3[O-])OCCO2` (stereo not shown) [Inhibitor 1984], the IC50 (IC50, μM) was > 3000 µM.
For the molecule `COC(=O)c1cc(NC(=O)c2ccc3c(c2)N(Cc2cccc(Cl)c2)C(=O)c2ccccc2[S+]3[O-])cc(C(=O)OC)c1` (stereo not shown) [Inhibitor 1986], the 50% inhibitory concentration (IC50) (IC50, μM) is > 3000 µM.
`CN(CCCNC(=O)c1ccc2c(c1)N(Cc1cccc(Cl)c1)C(=O)c1ccccc1[S+]2[O-])C1CCCCC1` (stereo not shown) [NTF1836]: the IC50 is ~100 µM (50, 100 and 200 μM in 0.005% Triton X-100, reciprocal plot of velocity versus inhibitor concentration, read-out: IC50); 100 µM (read-out: IC50 for MshC activity in an vitro enzyme assay).
